Structures can show the parent of a compound that is named as a salt.
Molecular target: T1, MMP1 (collagenase 1) (Homo sapiens, UniProt P03956)
T1 construct: made in house; host or cells: mouse C127 cells, vector pBPV-MMT, secreted into culture medium
T1 sequence (P03956 100-469): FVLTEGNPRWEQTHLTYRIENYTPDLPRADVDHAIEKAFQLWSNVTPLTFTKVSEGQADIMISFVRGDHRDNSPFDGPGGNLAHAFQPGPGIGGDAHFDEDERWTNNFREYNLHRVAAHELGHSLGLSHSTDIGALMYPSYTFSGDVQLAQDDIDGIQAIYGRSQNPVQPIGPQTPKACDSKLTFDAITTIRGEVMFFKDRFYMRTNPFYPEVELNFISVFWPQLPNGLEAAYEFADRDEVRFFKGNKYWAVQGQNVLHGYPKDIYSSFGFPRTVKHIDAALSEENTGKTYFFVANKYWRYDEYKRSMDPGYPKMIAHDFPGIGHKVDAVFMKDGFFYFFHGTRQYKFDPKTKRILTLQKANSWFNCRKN
Experiment: In vitro inhibition of MMP1 (collagenase 1), fluorogenic peptide substrate
Assay type: biochemical
Details: APMA-activated recombinant human collagenase; substrate 10 μM; 37° C.
Description: The inhibitory activities of compounds of formula I on MT1-MMP, MMP1 (collagenase 1) and MMP2 (gelatinase A) can be determined as follows:
Stock solutions of substrate (MCA-Pro-Leu-Gly-Leu-Dpa-Ala-Arg-NH2, Knight, C. G., Willenbrock, F., Murphy, G., A novel coumarin-labelled peptide for sensitive continuous assays of the matrix metalloproteinases, FEBS lett., 296, 263-266, (1992)), are prepared in 100% DMSO at a concentration 1.0 mM. Stock solutions of inhibitors are prepared in 100% DMSO. The inhibitor is diluted into the assays from a solution in 100% DMSO, and controls substitute an equal volume of DMSO so that the final DMSO concentration from inhibitor and substrate dilutions in all assays is 6.0%. Assays are performed in assay buffer (150 mM NaCl, 10 mM CaCl2, 50 mM Tris-Cl pH7.5, 0.05% Brij-35) containing 6.0% DMSO once the substrate and inhibitor are diluted into it. The substrate concentration used in the assays is 10 μM. The test is carried out at 37° C. The fluorescence changes are monitored using an excitation wavelength of 320 nm and an emission wavelength of […]. The reaction mixture is added in duplicate to appropriate wells of a 96 well microfluor plate. The reaction mixture is preincubated with the inhibitor for 30 min, the reaction is started by the addition of MMP enzyme and the fluorescence intensity is measured for 10 min. A time point that is on a linear part of the curve is chosen to determine the activity. The inhibition results are expressed as the inhibitor concentrations that produced 50% inhibition (IC50) of the activity in the control (non-inhibited) reaction. In this test, the compounds of the formula I and their pharmacologically acceptable salts have an inhibiting concentration IC50 [μmol/litre] of 0.0001 and 0.030, usually of 0.0002 to 0.010, for MMP2 and an inhibiting concentration IC50 [μmol/litre] of 0.0005 and 0.125, usually of 0.001 to 0.05, for MT1-MMP.
Plasmid: The cDNA for human collagenase is generated by PCR of cDNA derived from RNA isolated from human U937 cells (ATCC# CRL-2367). The primers, used to generate this cDNA, are […] and AAGGCGGCCGCA […], corresponding to nucleotides 58 to 1526 of the reported cDNA sequence, GenBank accession number X05231. The resulting cDNA fragment is subcloned into Not I site of a mammalian expression vector pBPV-MMT (Matthias, P. et al., J. Mol. Biol. 1986, 187(4):557-68).
C127 cells (ATCC-mouse mammary tumor cell line) are grown in Dulbecco's Modified Essential Medium supplemented with 10% heat inactivated fetal bovine serum and 1× antibiotic-antimycotic solution at 37° C. in a humidified CO2 incubator. Cells seeded at 8×10^5 in 100 mm dishes are transfected using a calcium phosphate precipitation method. 5 h prior to transfection, medium is replaced with fresh medium. Each dish is transfected with 15 μg of the expression vector. Cells are washed twice with PBS 16-18 h after transfection and are incubated in growth medium for an additional 48 h. Clones are then selected by incubation with the Neomycin related antibiotic G418 at a concentration of 400 μg/ml. Media from selected clones are analyzed for collagenase expression by an enzymatic assay. Expression and Purification: 16 liters of culture medium are concentrated to 1.6 liters and the enzyme is isolated by the procedures described by Wilhelm et al. (Proc. Natl. Acad. Sci. (USA). 1987; 84: 6725-29). The final product is further purified on a Superose G-75 (Pharmacia/LKB, Piscataway, N.J.) gel filtration column equilibrated in the assay buffer containing 0.15 M NaCl. Enzyme is pooled and stored in aliquots at −70° C. Recombinant procollagenase (43-45 kDa) is activated with 1 mM APMA (Aminophenylmercuric acetate, ICN Pharmaceuticals) for 2 h at 37° C., and the APMA is removed by extensive dialysis against the assay buffer containing 0.15M NaCl. The activated enzyme (˜36-kDa) is stored frozen at −70° C. until use.

Q: For C=CCCOc1ccc(S(=O)(=O)N(CC(=O)NO)Cc2cccc(F)n2)cc1 [Example 83a, 2-([4-But-3-enyloxy-benzenesulfonyl]-(6-fluoro-pyridine-2-yl)methyl-amino)-N-hydroxyacetamide], which IC50 is on record?
A: Its IC50 is 3.69 µM.

Q: For C=CCCOc1ccc(S(=O)(=O)N(CC(=O)NO)Cc2ccc(-n3cncn3)cc2)cc1 [Example 79, 2-[(4-but-3-enyloxy-benzenesulfonyl)-(4-[1,2,4]triazol-1-yl-benzyl)-amino]-N-hydroxy-acetamide-hydrochloride salt], which IC50 is on record?
A: The IC50 was 5.85 µM.

Q: For COc1ccc(CN(CC(=O)NO)S(=O)(=O)c2ccc(OCCCCl)cc2)cc1 [Example 68, 2-{[4-(3-chloro-propoxy)-benzenesulfonyl]-(4-methoxy-benzyl)amino}-N-hydroxy-acetamide], which IC50 is on record?
A: The IC50 was 0.622 µM.

Q: How did the IC50 turn out when C=CCCOc1ccc(S(=O)(=O)N(CC(=O)NO)Cc2ccc(N3CCCC3)cc2)cc1 [Example 84a, 2-[(4-But-3-enyloxy-benzenesulfonyl)-(4-(pyrrolidin-1-yl)-benzyl)-amino]-N-hydroxyacetamide-hydrochloride] was run?
A: The IC50 was 5.53 µM.

Q: With C=CCCOc1ccc(S(=O)(=O)N(CC(=O)NO)Cc2ccc(N3CCOCC3)cc2)cc1 [Example 81, 2-[(4-But-3-enyloxy-benzenesulfonyl)-(4-morpholin-4-yl-benzyl)-amino]-N-hydroxy-acetamide-hydrochloride] as the compound, how does the IC50 read?
A: Its IC50 is 4.29 µM.

Q: O=C(CN(Cc1ccc(-n2cncn2)cc1)S(=O)(=O)c1ccc(OCc2ccoc2)cc1)NO [Example 82c] was tested. Which IC50 did it give?
A: Its IC50 is 5.1 µM.

Q: How did the IC50 turn out when C=CCCOc1ccc(S(=O)(=O)N(CC(=O)NO)Cc2ccc(-n3ccnc3)cc2)cc1 [Example 80, 2-[(4-But-3-enyloxy-benzenesulfonyl)-(4-imidazol-1-yl-benzyl)-amino]-N-hydroxy-acetamide-hydrochloride] was run?
A: Its IC50 is 2.61 µM.

Q: With “2-[(Cyclopropylmethoxy-benzenesulfonyl)-(4-[1,2,4]triazol-1-yl-benzyl)-amino]-N-hydroxyacetamide-hydrochloride salt [Example 82b]” as the compound, how does the IC50 read?
A: Its IC50 is 0.965 µM.

Q: For C#CCOc1ccc(S(=O)(=O)N(CC(=O)NO)Cc2ccc(OC)cc2)cc1 [Example 75, [(4-methoxy-benzyl)-[4-prop-2-ynyloxy-benzenesulfonyl]-amino]-N-hydroxy-acetamide], which IC50 is on record?
A: Its IC50 is 0.069 µM.

Q: With O=C(CN(Cc1ccc(-n2cncn2)cc1)S(=O)(=O)c1ccc(OCCC2CC2)cc1)NO [Example 82a] as the compound, how does the IC50 read?
A: The IC50 was 4.21 µM.

— patent publication US8034810B2, “Arylsulfonamido-substituted hydroxamic acid derivatives” (Novartis AG, priority 1999, dated 2011)
